Test results: article PMC8750417, “Intracellular Amplifiers of Reactive Oxygen Species Affecting Mitochondria as Radiosensitizers” (Cancers, 2021)
Read-outs that look alike come from different tables or passages of the source.

Experiments:
[1] = n-octanol/water partition coefficient (logP) by RP-TLC; assay type: physicochemical
Protocol: Determination of n-octanol/water partition coefficients (LogP) […]
mixture of dichloromethane/CH3OH at proper concentrations. Commercially available […]
7.4) (6/4, v/v) was used. The solvent migration distance was around 4.5 cm. The plates […]
and its distance was manually measured. All measurements were done in at least triplicate and average values were used in further calculations. All experiments were performed at ambient temperature (22 ± 2 °C). […]

A2780 cells [2] = experiment: Accumulation of prodrugs in A2780 cells (atomic emission spectrometry of B, Fe); assay type: cell-based, human; settings: 5 µM, 4 h, Zn as internal standard, carrier = 1
Protocol: colored arrow. After the initial lagging period, the oxidation reactions reach their maximum […]
Accumulation of prodrugs in A2780 cells
A2780 cells (around 150 cells/µL, 40 mL) were seeded in T175 flasks (Greiner, Germany) in RPMI 1640 medium supplemented with 5% FBS, 1% L-glutamine, and 1% penicillin/streptomycin and incubated for 3-4 days at 37°C in the chamber filled with 5%
CO2. Next, a fresh portion of RPMI 1640 medium supplemented with 5% FBS, 1% L - glutamine, and 1% penicillin/streptomycin was added to replace old medium. Prodrugs ([…], 400 µL in DMSO, final concentration: 5 µM) or carrier (DMSO, 400 µL, final concentration: 1%. v/v) were added into the bottles and the cells were further incubated at 37°C for 4 h. The cells were washed with DPBS (2 x 10 mL) and trypsinated (trypsin/EDTA, 0.025%/0.01%, v/v, 2 mL). After the cells were harvested and centrifuged (5 min, 1000 rpm) in 50 mL falcon tube, the cell pellet was re-suspended in DPBS (1 mL), the suspension - transferred to 1.5 mL EP tube and centrifuged one more time (2 min, 2000 rpm). The obtained cell pellet was shaken with concentrated HNO3 (65%, 100 µL) in an Eppendorf Thermomixer for 10 min at 95° C, 600 rpm. […] The insoluble components were separated by centrifugation (30 min, 13000 rpm) and the supernatant was analyzed by atomic emission spectrometry (AES) for the detection of B, Zn and Fe. […]

A2780 cells [3] = experiment: Organelle-specific staining in A2780 cells (R123 MMP, AO lysosomes, ER, Golgi); assay type: cell-based, human; settings: for effect on lysosomes (LY), endoplasmic reticulum (ER) and Golgi (GO) staining: A2780, 30 µM, 1-4 h; for MMP compared to the MMP of untreated cells: R123
Protocol: Effect of prodrugs and controls on cellular organelles in A2780 cells: lysosomes (LY), endoplasmic reticulum (ER), Golgi (G) and mitochondria (Mit) (Figures 3, S56) A2780 cells were seeded in RPMI 1640 medium containing 5% FBS, 1% L-glutamine and 1% penicillin/streptomycin in a 24-well microtiter plate (total volume 0.5 mL) at a density of 200 cells/µL one day before the experiment. On the day of the experiment, prodrugs (“LY/ER/G”-experiments: stock solution - 3 mM, 5 µL, final concentration: 30 µM; “Mit”- experiment: stock solutions - 0.5, 1 and 3 mM, 5 µL, final concentrations: 5, 10, 30 µM) or carrier only (DMSO, 1%, v/v) were added to cells and incubated for 1, 4 and 24 h in a dark chamber filled with CO2 (5 %) at 37 °C. The cells were washed twice with DPBS buffer and the medium was replaced with HBSS (Hanks' Balanced Salt solution, 500 μL).
Stock solutions of different dyes (5 µL) were added: concentrations of the stock solutions were 4 mg/L for Acridine orange (AO), 10 mg/L for Rhodamine 123 (R123), 1 µM for ER-Tracker-Green (ERG) and 10 µM for Golgi-Staining-Green (GO). […]
Final concentrations of solutions were 40 µ g/L for AO, 100 µ g/L for R123, 0.01 µ M for ERG and 0.1 µ M for GO. The cells were incubated in the dark chamber filled with CO 2 (5%) at 37 ° C for 20 min. Afterwards the supernatant was removed, the cells were washed with DPBS buffer twice and detached from the culture dish using t rypsin/EDTA (0.025%/0.01%, v/v, 200 µ L). Next, the cells were re -suspended in fresh medium. Finally, the fluorescence of live cells (the number of total events was 5000, λex = 488 nm, λ em = 530 nm) in the suspensions was determined by using flow cytometry (N=3, Figure 3, S56).
Figure S56. Effects of the prodrugs on mitochondria membrane potential (MMP) of A2780 cell lines after 1 -48 h incubation. *: p< 0.05; **: p< 0.01; ***: p< 0.001 , Student’s t test. […]
reference (labelled on the plot). […]

AsPC1 cells = experiment: Cell viability by flow cytometry, AsPC1; assay type: cell-based, human; settings: AsPC1, 72 h incubation
Protocol: Table S3. Effects of the prodrugs on the viability of BL2 cell line (IC50 values) after 48 and […]
AsPC1 cells The cells (20.000/well) were seeded in a 12-well plate and incubated for 24 h. Afterwards, the medium was changed and the cells were further incubated for 72 h with medium containing different concentrations of compounds 2c and 5b. Viable cells were determined based on the morphological parameters by using flow cytometry (Table S4).
Table S4. Effects of the prodrugs on the viability of AsPC1 cell lines (IC50 values) after 72 […]
Jurkat cells The cells were counted in MUSE Cell Analyzer using MUSE® Count &Viability Assay Kit (Merck-Millipore, Billerica, MA, USA) and adjusted to a density of 1.0 x 10^5/ml in RPMI 1640 medium (with 10% FCS and 1% glutamine). 9.000 cells per well per 90 µL were seeded into 96 well culture plates. The 30 mM prodrug stock solutions in DMSO were diluted to 300 µM, 100 µM, 30 µM and 10 µM in cell culture medium and 10 µL of the dilutions was pipetted to the cells, receiving final test concentrations of 30 µM, 10 µM, 3 µM and 1 µM. Every concentration was tested in triplicates. Cells with corresponding amounts of DMSO served as negative controls. After 48 h cells were mixed and 25 µL of […]

SMILES | logP (Hydrolyzed Prodrug) ([1]; n-octanol/water partition coefficient of the hydrolyzed boronic acid (_BA) form of the prodrug named) | logP (Prodrug) ([1]; n-octanol/water partition coefficient of the intact prodrug (or control 2c_c), RP-TLC, MOPS pH 7.4) | Relative iron amount (A2780 cells [2]) | effect on lysosomes (LY), endoplasmic reticulum (ER) and Golgi (GO) staining (A2780 cells [3]) | MMP compared to the MMP of untreated cells (A2780 cells [3]; A2780, 1 h incubation) | MMP compared to the MMP of untreated cells (A2780 cells [3]; A2780, 24 h incubation) | IC50 (AsPC1 cells) | logP (Hydrolyzed Prodrug) [1] | logP (Prodrug) ([1]; pH 7.4)
CC1(C)OB(c2ccc(COC(=O)N(Cc3cn(Cc4ccc(Cn5cc(Cc6ccccc6)nn5)cc4)nn3)[c-]3cccc3)cc2)OC1(C)C.[Fe+2].c1cc[cH-]c1 [2c] | 3.23 ± 0.11 | 5.37 ± 0.15 | 5.0 ± 0.1 | affected neither LY nor ER nor GO | 69 ± 11% | 30 ± 5% | 7.1 ± 1 µM |  | 
CC1(C)OB(c2ccc(COC(=O)N(Cc3cccc(CN4CCCCC4)c3)[c-]3cccc3)cc2)OC1(C)C.[Fe+2].c1cc[cH-]c1 [5b] |  |  |  | strongly affected lysosomes |  |  | 6.7 ± 0.5 µM |  | 
CCOC(=O)CCCCCn1cc(CN(C(=O)OCc2ccc(B3OC(C)(C)C(C)(C)O3)cc2)[c-]2cccc2)nn1.[Fe+2].c1cc[cH-]c1 [compound 1] |  |  | 1.4 ± 0.1 |  |  |  |  | 2.83 ± 0.07 | 4.87 ± 0.05
